Test results reported in patent US20220288048A1, “PIMAVANSERIN FOR TREATING SCHIZOPHRENIA OR FOR TREATING PSYCHOSIS SECONDARY TO NEURODEGENERATIVE DISORDERS OR DEPRESSIVE DISORDER” (ACADIA Pharmaceuticals Inc., priority 2019, published 2022).
Entries after “also recorded” stand apart in the source; their conditions may differ.

Tests used:
[1] = test system: adult schizophrenia patients; experiment: 6-week adjunctive pimavanserin study: safety and adverse events; format: in vivo, human
Procedure: The effect of pimavanserin as an adjunctive treatment in adult schizophrenia patients with a persistent inadequate response (i.e., partial responders) to their existing antipsychotic therapy was tested. 396 patients with moderate-to-severe psychotic symptoms were randomized to receive either pimavanserin or placebo added to existing antipsychotic treatment.
Patients were administered a daily dose of pimavanserin or a placebo for six weeks. The dose started at 20 mg and could be adjusted to 34 mg or 10 mg between weeks 1 and 3. The majority of patients (56%) completed the study at the highest dose level.
The safety of the pimavanserin arm was similar to placebo, with no new signals observed. […] The overall number of SAEs and AEs leading to discontinuation was low. The most commonly reported AEs leading to discontinuation of treatment were from the psychiatric disorders system and seen in the active arm.

[2] = test system: scPCP-treated C57BL/6J mice; experiment: 10-min social interaction test in scPCP-treated mice; format: in vivo; conditions: pimavanserin 3 and 6 mg/kg ip, alone
Procedure: Negative symptoms model: The behavioral assay utilized to assess negative symptoms was social interaction (SI) task.
Briefly, mice were habituated to the test arena (i.e., the NOR box) for 30 minutes prior to the test day. Pairs of mice, unfamiliar to each other, received either the same treatment (e.g., vehicle and vehicle; N=10 pairs) or different treatments (e.g., vehicle; N=10 and phencyclidine (PCP) 10 mg/kg; N=10). After washout, they were placed in the test arena together for 10 minutes. A heavy object made of Plexiglas or metal was placed in the center of the test arena to quantify the time and nature of interaction of the test animals with an unfamiliar object or an unfamiliar animal. After the 10 min test phase, the object and the arena were cleaned with 70% ethanol to remove any olfactory trails. Behavior was recorded on video for subsequent blind scoring.
The following four behaviors were scored for each animal: • a) Sniffing: A normal mouse engages in sniffing the con-specific mouse's body, including the anogenital area • b) Following: A normal mouse pursues a con-specific mouse around the arena • c) Avoiding: A normal mouse avoids the con-specific mouse and move away from a pursuing mouse if approached • d) Object Exploration: A normal mouse explores the object that is placed in the center of the test arena.
scPCP treatment involved intraperitoneal injection (ip) of 10 mg/kg PCP to male C57BL/6J mice, twice daily (bid) for 7 days, followed by 7 days washout. To test the effect of atypical APD or pimavanserin in scPCP-treated mice (N=10 pairs of mice per group), risperidone was administered as 0.05 mg/kg ip or 0.2 mg/kg ip; and pimavanserin was administered as 3 mg/kg ip or 6 mg/kg ip to scPCP-treated mice 45 minutes prior to the commencement of the social interaction task in the 10 min social interaction test.

[3] = test system: subjects with schizophrenia who have predominant negative symptoms; experiment: Phase 2, 26-week placebo-controlled study of adjunctive pimavanserin for negative symptoms of schizophrenia: efficacy; format: in vivo, human; conditions: for NSA-16 total score vs placebo, effect size: Week 26; for NSA-16 total score, change from Baseline to Week 26: placebo −8.5
Procedure: (§1) This study is conducted as a Phase 2, 26-week, randomized, double-blind, placebo-controlled, multicenter, multinational outpatient study in subjects with schizophrenia who have predominant negative symptoms while on adequate treatment with an antipsychotic. Schizophrenia is defined by the Diagnostic and Statistical Manual of Mental Disorders, Fifth Edition (DSM-5), confirmed by a customized module of the Structured Clinical Interview for DSM-5, Clinical Trials Version (SCID-5-CT). This study enrolls approximately 403 subjects with predominant negative symptoms of schizophrenia. In the study, patients were randomized to receive either pimavanserin or placebo added to their current background antipsychotic treatment for 26 weeks in duration. At baseline all patients were started on a daily dose of 20 mg of pimavanserin or placebo with dose adjustments allowed up to 34 mg or down to 10 mg during the first eight weeks of treatment. Following week eight no further dose modifications were allowed for the remaining 18 weeks in the study.
The daily dose of the main antipsychotic must remain stable and may not be changed from Screening through the duration of the study. […] At the Weeks 2, 4, and 8 visits, the daily dose of pimavanserin may remain at 20 mg or it may be either increased to 34 mg (for symptom improvement) or decreased to 10 mg daily (if the 20 mg dose is not well tolerated). After the Week 8 visit, no study drug dose changes may be made. Clinic visits occurring after Baseline will be conducted at Weeks 2, 4, 8, 14, 20, and 26 (End-of-Study [EOS]/Early Termination [ET] visit).
The test products are pimavanserin 10 mg and 17 mg tablets or matching placebo. Daily doses of pimavanserin to be studied are 10 mg (provided as 1×10 mg pimavanserin tablet and 1× matching placebo); 20 mg (2×10 mg pimavanserin tablets); or 34 mg (2×17 mg pimavanserin tablets); or matching placebo (2× placebo tablets); delivered by mouth. Seventeen (17) mg of the active moiety is dosed as 20 mg of the salt pimavanserin tartrate; 10 mg of the active moiety is dosed as 11.8 mg of the salt pimavanserin tartrate. The duration of participation for individual subjects will be up to approximately 34 weeks.
Primary Efficacy Endpoint is the change from Baseline to Week 26 in the Negative Symptom Assessment-16 (NSA-16) total score.
Secondary Endpoints Key Secondary Endpoint is the change from Baseline to Week 26 in the Personal and Social Performance Scale (PSP) score.

[4] = test system: subjects with schizophrenia who have predominant negative symptoms; experiment: Phase 2, 26-week adjunctive pimavanserin study: safety; format: in vivo, human; conditions: 26-week study
Procedure: as §1, with “Following week eight no further dose modifications were allowed for the remaining 18 weeks in the study.” left out
Safety will be evaluated by analyses of adverse events, vital signs, ECGs, physical examination results, and clinical laboratory tests (including urinalysis), and the Abnormal Involuntary Movement Scale (AIMS), the Barnes Akathisia Rating Scale (BARS), the Simpson-Angus Extrapyramidal Side Effects Scale (SAS), and the Columbia Suicide Severity Rating Scale (C-SSRS).

CC(C)COc1ccc(CNC(=O)N(Cc2ccc(F)cc2)C2CCN(C)CC2)cc1 [Pimavanserin, N-(4-Fluorophenylmethyl)-N-(1-methylpiperidin-4-yl)-N′-(4-(2-methylpropyloxy)phenylmethyl)carbamide]
Patients who completed the study ([1]; 6-week study): Approximately 88% | QT prolongation ([1]; 6-week study): Minimal QT prolongation | Vital signs, weight, metabolic syndrome, and extrapyramidal symptoms compared to adjunctive placebo ([1]; 6-week study): did not result in clinically significant differences; also recorded: No effect was seen | Any Related Serious Treatment-Emergent Adverse Event, Events n ([1]; Safety Analysis Set, N = 198): 2 | Any Related Serious Treatment-Emergent Adverse Event, Subjects (%) ([1]; Safety Analysis Set, N = 198): 0.5% | Any Related Serious Treatment-Emergent Adverse Event, Subjects n ([1]; Safety Analysis Set, N = 198): 1 | Any Related Treatment-Emergent Adverse Event, Events n ([1]; Safety Analysis Set, N = 198): 46 | Any Related Treatment-Emergent Adverse Event, Subjects (%) ([1]; Safety Analysis Set, N = 198): 16.7% | Any Related Treatment-Emergent Adverse Event, Subjects n ([1]; Safety Analysis Set, N = 198): 33 | Any Serious Treatment-Emergent Adverse Event, Events n ([1]; Safety Analysis Set, N = 198): 3 | Any Serious Treatment-Emergent Adverse Event, Subjects (%) ([1]; Safety Analysis Set, N = 198): 1.0% | Any Serious Treatment-Emergent Adverse Event, Subjects n ([1]; Safety Analysis Set, N = 198): 2 | Any Treatment-Emergent Adverse Event Leading to Discontinuation or Study Termination, Events n ([1]; Safety Analysis Set, N = 198): 7 | Any Treatment-Emergent Adverse Event Leading to Discontinuation or Study Termination, Subjects (%) ([1]; Safety Analysis Set, N = 198): 2.5% | Any Treatment-Emergent Adverse Event Leading to Discontinuation or Study Termination, Subjects n ([1]; Safety Analysis Set, N = 198): 5 | Any Treatment-Emergent Adverse Event, Events n ([1]; Safety Analysis Set, N = 198): 142 | Any Treatment-Emergent Adverse Event, Subjects (%) ([1]; Safety Analysis Set, N = 198): 40.4% | Any Treatment-Emergent Adverse Event, Subjects n ([1]; Safety Analysis Set, N = 198): 80 | Any Serious Treatment-Emergent Adverse Event, Subjects (%) ([1]; Safety Analysis Set, N = 198, listed as pimavanserin): 1% | Adverse events reported in at least 5% of patients ([1]; pimavanserin group, 6-week study): headache, somnolence, and insomnia | Restoration of SI deficit in scPCP-treated mice [2]: did not restore SI deficit | NSA-16 total score vs placebo, effect size ([3]; 34 mg dose): 0.34 | NSA-16 total score, change from Baseline to Week 26 ([3]; all pimavanserin doses (10-34 mg daily), added to background antipsychotic): −10.4 | NSA-16 total score vs placebo, effect size ([3]; all pimavanserin doses): 0.21 | Personal and Social Performance Scale, change from Baseline to Week 26 ([3]; key secondary endpoint, placebo 8.1): 8.1 | NSA-16 total score, change from Baseline to Week 26 ([3]; patients who received the 34 mg fixed dose after week 8 (n=107)): −11.6 | Vital signs, weight, metabolic syndrome, and extrapyramidal symptoms compared to adjunctive placebo [4]: did not result in clinically significant differences | Rate of adverse events ([4]; adjunctive pimavanserin): 40%
